The results in this text go back to ChEMBL document CHEMBL3045469, “Design, synthesis and preliminary evaluation of some novel [1,4]diazepino [5,6-b]pyrrolizine and 6-(2-oxopyrrolidino)-1H-pyrrolizine derivatives as anticonvulsant agents” (Med Chem Res, 2011).

The subject of data set [1] is Mus musculus. Description: Anticonvulsant activity in Mus musculus Swiss albino (mouse) assessed as protection against pentylenetetrazole-induced seizures at 75 mg/kg, ip administered 1 hr prior to pentylenetetrazole-challenge measured up to 1 hr relative to control. The class given is functional. To be noted: route intraperitoneal.
Data set [2] concerns Mus musculus. Kind of data set: Anticonvulsant activity in Mus musculus Swiss albino (mouse) assessed as protection against pentylenetetrazole-induced seizures at 100 mg/kg, ip administered 1 hr prior to pentylenetetrazole-challenge measured up to 1 hr relative to control. The class given is functional. As to conditions: route intraperitoneal.
In data set [3] the test system is Mus musculus. Description: Anticonvulsant activity in ip dosed Mus musculus Swiss albino (mouse) assessed as protection against pentylenetetrazole-induced seizures administered 1 hr prior to pentylenetetrazole-challenge measured up to 1 hr. The format is functional. To be noted: read-out: PD50.
Data set [4] has as its system Mus musculus. Kind of data set: Anticonvulsant activity in ip dosed Mus musculus Swiss albino (mouse) assessed as protection against pentylenetetrazole-induced seizures administered 1 hr prior to pentylenetetrazole-challenge measured up to 1 hr relative to phenobarbital. The format is functional.
Data set [5] concerns Mus musculus. Kind of data set: Anticonvulsant activity in Mus musculus Swiss albino (mouse) assessed as protection against pentylenetetrazole-induced seizures at 50 mg/kg, ip administered 1 hr prior to pentylenetetrazole-challenge measured up to 1 hr relative to control. The class given is functional. To be noted: route intraperitoneal.
The nature of data set [6]: Toxicity in ip dosed Mus musculus albino (mouse) after 24 hr. The format is organism-based. To be noted: in vivo.
The test system of data set [7] is Mus musculus. Kind of data set: Toxicity in Mus musculus albino (mouse) assessed as mortality at 600 to 2400 mg/kg, ip after 24 hr. To be noted: in vivo. Also on record: dose 600-2400 mg/kg, route intraperitoneal. The format is organism-based.
The test system of data set [8] is Mus musculus. Description: Toxicity in Mus musculus albino (mouse) assessed as mortality at 300 mg/kg, ip after 24 hr. The format is organism-based. Also on record: dose 300 mg/kg, route intraperitoneal. To be noted: in vivo.
For data set [9], the system named is Mus musculus. Description: Toxicity in Mus musculus albino (mouse) assessed as mortality at 160 to 400 mg/kg, ip after 24 hr. Further details: dose 160-400 mg/kg, route intraperitoneal. As to conditions: in vivo. The format is organism-based.
Data set [10] deals with Mus musculus. Kind of data set: Anticonvulsant activity in Mus musculus Swiss albino (mouse) assessed as protection against pentylenetetrazole-induced seizures at 30 mg/kg, ip administered 1 hr prior to pentylenetetrazole-challenge measured up to 1 hr relative to control. As to conditions: route intraperitoneal. The class given is functional.
The subject of data set [11] is Mus musculus. Description: Anticonvulsant activity in Mus musculus Swiss albino (mouse) assessed as protection against pentylenetetrazole-induced seizures at 10 mg/kg, ip administered 1 hr prior to pentylenetetrazole-challenge measured up to 1 hr relative to control. To be noted: route intraperitoneal. The format is functional.
Data set [12] relates to Mus musculus. Description: Toxicity in Mus musculus albino (mouse) assessed as mortality at 100 mg/kg, ip after 24 hr. The class given is organism-based. Further details: dose 100 mg/kg, route intraperitoneal. To be noted: in vivo.
In data set [13] the test system is Mus musculus. Description: Anticonvulsant activity in Mus musculus Swiss albino (mouse) assessed as protection against pentylenetetrazole-induced seizures at 20 mg/kg, ip administered 1 hr prior to pentylenetetrazole-challenge measured up to 1 hr relative to control. As to conditions: route intraperitoneal. The class given is functional.

In general, LD50 refers to the dose expected to kill half of the subjects tested.

The structures appear in SMILES notation.

Turning to `N#Cc1c(NC(=O)CCCCl)c(C(=O)Nc2ccc(Cl)cc2)n2c1CCC2`, the Activity in the data set with Mus musculus [1] came out at 40%; in the data set on Mus musculus [2] it was 40%; in the data set with Mus musculus [4], 19.7%; with Mus musculus [5] it was 20%. Besides, the ED50 in the data set on Mus musculus [3] is 117 mg/kg.
Take `N#Cc1c(N2CCCC2=O)c(C(=O)Nc2ccccc2)n2c1CCC2`: the Activity is given as 20% in the data set on Mus musculus [1], 0% in the data set on Mus musculus [2], 34.2% in the data set on Mus musculus [4] and 60% in the data set on Mus musculus [5]. The ED50 in the data set on Mus musculus [3] worked out at 55.6 mg/kg.
For the molecule `Cc1ccc(NC(=O)c2c(N3CCCC3=O)c(C#N)c3n2CCC3)cc1`, the Activity in the data set on Mus musculus [1] is listed as 0%; with Mus musculus [2] it was 0%; in the data set with Mus musculus [4] it was 67.9%; in the data set with Mus musculus [7], “Toxic”; in the data set with Mus musculus [8], “Non-toxic”; in the data set on Mus musculus [5], 40%. Moreover, in data set [6], the LD50 at 24 h is 1010 mg/kg. Moreover, the ED50 in the data set with Mus musculus [3] came to 29.2 mg/kg.
Regarding `N#Cc1c(N2CCCC2=O)c(C(=O)Nc2ccc(Cl)cc2)n2c1CCC2`, the Activity with Mus musculus [1] worked out at 20%; with Mus musculus [2] it was 0%; in the data set on Mus musculus [4], 55.8%; with Mus musculus [5], 40%. Further, in the data set with Mus musculus [3], the ED50 is 37.5 mg/kg.
The corresponding values for `N#Cc1c(NC(=O)CCl)c(C(=O)Nc2ccccc2)n2c1CCC2` are 20%, 40%, 17.3%, 0% and 112 mg/kg.
Regarding `Cc1ccc(NC(=O)c2c(NC(=O)CCl)c(C#N)c3n2CCC3)cc1`, the Activity with Mus musculus [1] is 40%; in the data set on Mus musculus [2] it was 40%; with Mus musculus [4], 17.4%; in the data set on Mus musculus [5], 20%. In the data set on Mus musculus [3], the ED50 stood at 117 mg/kg.
Regarding `N#Cc1c(NC(=O)CCl)c(C(=O)Nc2ccc(Cl)cc2)n2c1CCC2`, the Activity with Mus musculus [1] is reported as 40%; with Mus musculus [2] it was 60%; in the data set with Mus musculus [4] it was 24.1%; in the data set on Mus musculus [5] it was 0%. Moreover, the ED50 with Mus musculus [3] is 88.9 mg/kg.
Take `N#Cc1c2c(n3c1CCC3)C(=O)N(c1ccccc1)CC(=O)N2`: the Activity was 40% in the data set on Mus musculus [1], 40% in the data set on Mus musculus [2], 14.9% in the data set on Mus musculus [4] and 20% with Mus musculus [5]. For the same molecule, the ED50 with Mus musculus [3] was 117 mg/kg.
For the molecule `Cc1ccc(N2CC(=O)Nc3c(C#N)c4n(c3C2=O)CCC4)cc1`, the Activity in the data set with Mus musculus [1] is listed as 20%; in the data set with Mus musculus [2] it was 20%; in the data set on Mus musculus [4], 10.9%; in the data set with Mus musculus [5], 0%. Further, in the data set with Mus musculus [3], the ED50 worked out at 167 mg/kg.
Regarding `N#Cc1c2c(n3c1CCC3)C(=O)N(c1ccc(Cl)cc1)CC(=O)N2`, the Activity with Mus musculus [1] turned out to be 0%; with Mus musculus [2] it was 20%; in the data set with Mus musculus [4], 10.6%; in the data set with Mus musculus [5], 0%. In the data set with Mus musculus [3], the ED50 was 183 mg/kg.
Regarding `CN1C(=O)CN(c2ccccc2)C(=O)c2c1c(C#N)c1n2CCC1`, the Activity with Mus musculus [1] is on record as 20%; with Mus musculus [2], 40%; in the data set on Mus musculus [4], 16.2%; in the data set on Mus musculus [5], 0%. In addition, in the data set on Mus musculus [3], the ED50 was found to be 112 mg/kg.
As to `Cc1ccc(N2CC(=O)N(C)c3c(C#N)c4n(c3C2=O)CCC4)cc1`, the Activity in the data set with Mus musculus [1] was 20%; in the data set on Mus musculus [2], 20%; in the data set with Mus musculus [4], 11.4%; in the data set with Mus musculus [5] it was 0%. In the data set on Mus musculus [3], the ED50 was determined as 167 mg/kg.
On to `CN1C(=O)CN(c2ccc(Cl)cc2)C(=O)c2c1c(C#N)c1n2CCC1`, for which the Activity with Mus musculus [1] is on record as 20%; with Mus musculus [2], 40%; in the data set with Mus musculus [4], 15.1%; in the data set on Mus musculus [5], 20%. Also, in the data set with Mus musculus [3], the ED50 came out at 133 mg/kg.
In the case of `N#Cc1c(NC(=O)CCCCl)c(C(=O)Nc2ccccc2)n2c1CCC2`, the Activity in the data set on Mus musculus [1] is listed as 40%; in the data set with Mus musculus [2], 60%; with Mus musculus [4], 23.7%; with Mus musculus [5] it was 0%. For the same molecule, the ED50 in the data set on Mus musculus [3] was found to be 88.9 mg/kg.
Regarding `Cc1ccc(NC(=O)c2c(NC(=O)CCCCl)c(C#N)c3n2CCC3)cc1`, the Activity is given as 20% in the data set with Mus musculus [1], 40% with Mus musculus [2], 19.4% with Mus musculus [4] and 0% with Mus musculus [5]. Moreover, the ED50 in the data set with Mus musculus [3] was determined as 112 mg/kg.
In [6], `CCC1(c2ccccc2)C(=O)NC(=O)NC1=O` [PHENOBARBITAL] returned an LD50 at 24 h of 251 mg/kg. In the data set on Mus musculus [3], the ED50 turned out to be 14.4 mg/kg. Also, the Activity result in the data set on Mus musculus [9] is listed as “Toxic”; in the data set on Mus musculus [10], 100%; with Mus musculus [11] it was 40%; in the data set on Mus musculus [12] it was “Non-toxic”; in the data set with Mus musculus [13], 60%.
